According to patent US10703798B2, “Methods of cancer therapy by inhibiting fusion polypeptides comprising fibroblast growth factor receptor 2 (FGFR2) and vinculin (VCL)” (DEBIOPHARM INTERNATIONAL SA, priority 2014, dated 2020):
Entries after “also recorded” stand apart in the source; their conditions may differ. Read-outs that look alike come from different tables or passages of the source.

Legend:
Rat2 parental cells [1] = assay: Cell proliferation assay using FACS, parental cells; assay type: cell-based, rat; conditions: 72 h with inhibitor, cells counted by FACS, read-out: Relative IC50
Description: (§1) Stable Rat2 cell pools stably expressing FGFR2-CCDC147 or FGFR2-VCL fusions, respectively, were generated using pExoIN2-based expression plasmids ExoIN2-FGFR2_CCDC147 and pExoIN2-FGFR2_VCL. pExoIN2 was obtained from Trenzyme, (Germany). The latter expression plasmids were introduced into Rat2 cells by electroporation (LONZA Nucleofector II Device/program [X-005], Solution R). 24 h post-transduction, cells were subjected to 1.5 µg/mL puromycin to derive stable expressor cell pools. The FGFR2-CCDC147 sequence used in this example was composed of SEQ ID NO: 16 for the FGFR2 part (nucleic acid 1 to nucleic acid 2574) and SEQ ID NO: 20 for the CCDC147 part (nucleic acid 156 to nucleic acid 3313). The FGFR2-VCL sequence used was composed of SEQ ID NO: 16 for the FGFR2 part (nucleic acid 1 to nucleic acid 2574) and SEQ ID NO: 18 for the VCL part (nucleic acid 2117 to nucleic acid 5482).

[2] = tested on: FGFR2-VCL expressing Rat2 cells; assay: Cell proliferation assay using FACS, FGFR2-VCL expressing cells; assay type: cell-based, rat; conditions: 72 h with inhibitor, cells counted by FACS, read-out: Relative IC50
Description: (§2) At the end of the incubation period, cells were counted by FACS. IC50 values were calculated in Graphpad Prism 6 using sigmoidal response (variable slope) curve fit.

[3] = tested on: FGFR2-CCDC147 expressing Rat2 cells; assay: Cell proliferation assay using FACS, FGFR2-CCDC147 expressing cells; assay type: cell-based, rat; conditions: 72 h with inhibitor, cells counted by FACS, read-out: Relative IC50
Description: as §2

Rat2 parental cells [4] = conditions: read-out: Relative IC50, 72 h with inhibitor, cellular ATP content (Cell Titer Glo)
Description: as §1
(§3) Rat2 cells obtained as per Example 4 (either parental cells or cells expressing FGFR2-VCL or FGFR2-CCDC147 fusion polypeptide) were used in this assay. Cells were seeded in 96 well plates and cultured for 24 h before addition of FGFR inhibitors (the same as in section (1) above). After 72 h of further incubation, cell growth was analyzed by determination of the cellular ATP content (Cell Titer Glo; Promega) using a luminescence plate reader.

[5] = tested on: FGFR2-VCL expressing Rat2 cells; assay: Cell proliferation assay using Cell Titer Glo, FGFR2-VCL expressing cells; assay type: cell-based, rat; conditions: 72 h with inhibitor, cellular ATP content (Cell Titer Glo), read-out: Relative IC50
Description: as §1, §3

[6] = tested on: FGFR2-CCDC147 expressing Rat2 cells; assay: Cell proliferation assay using Cell Titer Glo, FGFR2-CCDC147 expressing cells; assay type: cell-based, rat; conditions: 72 h with inhibitor, cellular ATP content (Cell Titer Glo), read-out: Relative IC50
Description: as §1, §3

Rat2-FGFR2-CCDC147 tumor = assay: In vivo sensitivity, subcutaneously implanted Rat2-FGFR2-CCDC147 tumor model; set-up: species or system female NMRI nude mice; conditions: 30 and 60 mg/kg orally once daily for 14 consecutive days
Description: On Day 0, 5×10^6 FGFR2-CCDC147-expressing Rat2 cells in 100 μl PBS were subcutaneously implanted into the left flank of 5-6 week-old female NMRI nude mice (group size of 6 animals). […] Primary tumor sizes were measured twice weekly by calipering. Animals were terminated on last day of treatment and tumors weighed at necropsy.

Rat2-FGFR2-VCL tumor = assay: In vivo sensitivity, subcutaneously implanted Rat2-FGFR2-VCL tumor model; set-up: species or system female NMRI nude mice
Description: On Day 0, 1×10^6 FGFR2-VCL expressing Rat2 cells in 100 μl PBS were subcutaneously implanted into the left flank of 5-6 week-old female NMRI nude mice (group size of 6 animals).
Primary tumor sizes were measured twice weekly by calipering. Animals were terminated on last day of treatment and tumors weighed at necropsy.

[7] = biological target: T1, FGFR2-VCL fusion polypeptide (Homo sapiens, UniProt P21802); assay: Autophosphorylation of FGFR2-VCL in transiently transfected HEK293T cells, Western blot; assay type: cell-based; conditions: FGFR2-VCL-expressing HEK293T cells, 1E-05 M, 90 min
T1 construct: VCL polypeptide part (fusion partner, same polypeptide); expressed in transfected cells; host or cells: HEK293T; the other entry of the earlier key: VCL (P18206, Vinculin)
Source text: (§4) In this example, the following sequences were used: the FGFR2-CCDC147 fusion gene was composed of SEQ ID NO: 16 for the FGFR2 part (nucleic acid 1 to nucleic acid 2574) and SEQ ID NO: 20 for the CCDC147 part (nucleic acid 156 to nucleic acid 3313); and the FGFR2-VCL fusion gene was composed of SEQ ID NO: 16 for the FGFR2 part (nucleic acid 1 to nucleic acid 2574) and SEQ ID NO: 18 for the VCL part (nucleic acid 2117 to nucleic acid 5482).
(§5) HEK293T cells were transiently transfected with expression plasmids containing either an FGFR2-VCL or an FGFR2-CCDC147 fusion gene, which genes had been supplemented with a C-terminal double myc-tag extension. As a negative control, HEK293T cells were mock-transfected. […] The expression of myc-tagged fusion polypeptide was determined using the anti-myc antibody 9E10 (α-myc), and the phosphorylation analysis was performed with the anti-phospho-tyrosine antibody pY99 (α-pY).

[8] = biological target: T2, FGFR2-CCDC147 fusion polypeptide (Homo sapiens, UniProt P21802); assay: Autophosphorylation of FGFR2-CCDC147 in transiently transfected HEK293T cells, Western blot; assay type: cell-based; conditions: FGFR2-CCDC147-expressing HEK293T cells, 1E-05 M, 90 min
T2 construct: CCDC147 (CFAP58) polypeptide part (fusion partner, same polypeptide); expressed in transfected cells; host or cells: HEK293T; the other entry of the earlier key: CFAP58 (Q5T655, Cilia- and flagella-associated protein 58)
Source text: as §4, §5

[9] = biological target: T1, FGFR2-VCL fusion polypeptide; assay: Autophosphorylation of FGFR2-VCL in transiently transfected HEK293T cells, sandwich phosphotyrosine ELISA; assay type: cell-based; conditions: FGFR2-VCL-expressing HEK293T cells, 1E-05 M, 90 min
Source text: as §4
(§6) After treatment, autophosphorylation of the FGFR2 fusion polypeptides was analysed using a sandwich phosphotyrosine ELISA. Each condition was done in duplicates.

[10] = biological target: T2, FGFR2-CCDC147 fusion polypeptide; assay: Autophosphorylation of FGFR2-CCDC147 in transiently transfected HEK293T cells, sandwich phosphotyrosine ELISA; assay type: cell-based; conditions: FGFR2-CCDC147-expressing HEK293T cells, 1E-05 M, 90 min
Source text: as §4, §6

T1 sequence (P21802 with tags, fused parts or gaps): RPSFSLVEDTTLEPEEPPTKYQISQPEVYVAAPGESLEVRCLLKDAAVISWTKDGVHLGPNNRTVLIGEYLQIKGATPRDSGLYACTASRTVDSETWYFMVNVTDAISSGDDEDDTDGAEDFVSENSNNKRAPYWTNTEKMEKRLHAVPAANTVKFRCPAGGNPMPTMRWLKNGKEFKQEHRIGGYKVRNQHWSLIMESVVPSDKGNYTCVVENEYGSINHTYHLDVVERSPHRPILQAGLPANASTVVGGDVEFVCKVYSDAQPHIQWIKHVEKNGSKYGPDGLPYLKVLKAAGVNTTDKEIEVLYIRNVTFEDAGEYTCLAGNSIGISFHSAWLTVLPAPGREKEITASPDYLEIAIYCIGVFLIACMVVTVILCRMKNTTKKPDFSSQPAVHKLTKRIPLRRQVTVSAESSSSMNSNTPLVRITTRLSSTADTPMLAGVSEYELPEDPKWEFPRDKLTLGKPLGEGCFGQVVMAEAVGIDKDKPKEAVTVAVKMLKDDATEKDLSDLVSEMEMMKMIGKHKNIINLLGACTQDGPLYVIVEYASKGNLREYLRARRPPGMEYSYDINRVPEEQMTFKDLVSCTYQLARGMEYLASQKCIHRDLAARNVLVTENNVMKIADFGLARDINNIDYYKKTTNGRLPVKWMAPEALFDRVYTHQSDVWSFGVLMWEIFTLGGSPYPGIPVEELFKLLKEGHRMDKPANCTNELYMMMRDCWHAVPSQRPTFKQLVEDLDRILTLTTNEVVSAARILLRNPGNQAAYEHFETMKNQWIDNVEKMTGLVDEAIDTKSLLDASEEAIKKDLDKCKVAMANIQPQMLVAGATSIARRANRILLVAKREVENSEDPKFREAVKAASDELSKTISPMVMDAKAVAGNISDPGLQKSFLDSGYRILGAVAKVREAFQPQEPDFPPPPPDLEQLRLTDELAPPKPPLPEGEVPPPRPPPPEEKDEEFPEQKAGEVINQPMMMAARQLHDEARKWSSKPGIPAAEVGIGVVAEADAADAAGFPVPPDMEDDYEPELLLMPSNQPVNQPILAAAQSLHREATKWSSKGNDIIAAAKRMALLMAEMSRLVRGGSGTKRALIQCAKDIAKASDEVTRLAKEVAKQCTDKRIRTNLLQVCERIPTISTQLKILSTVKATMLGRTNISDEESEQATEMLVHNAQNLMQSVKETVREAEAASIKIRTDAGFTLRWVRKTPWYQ
T2 sequence (P21802 with tags, fused parts or gaps): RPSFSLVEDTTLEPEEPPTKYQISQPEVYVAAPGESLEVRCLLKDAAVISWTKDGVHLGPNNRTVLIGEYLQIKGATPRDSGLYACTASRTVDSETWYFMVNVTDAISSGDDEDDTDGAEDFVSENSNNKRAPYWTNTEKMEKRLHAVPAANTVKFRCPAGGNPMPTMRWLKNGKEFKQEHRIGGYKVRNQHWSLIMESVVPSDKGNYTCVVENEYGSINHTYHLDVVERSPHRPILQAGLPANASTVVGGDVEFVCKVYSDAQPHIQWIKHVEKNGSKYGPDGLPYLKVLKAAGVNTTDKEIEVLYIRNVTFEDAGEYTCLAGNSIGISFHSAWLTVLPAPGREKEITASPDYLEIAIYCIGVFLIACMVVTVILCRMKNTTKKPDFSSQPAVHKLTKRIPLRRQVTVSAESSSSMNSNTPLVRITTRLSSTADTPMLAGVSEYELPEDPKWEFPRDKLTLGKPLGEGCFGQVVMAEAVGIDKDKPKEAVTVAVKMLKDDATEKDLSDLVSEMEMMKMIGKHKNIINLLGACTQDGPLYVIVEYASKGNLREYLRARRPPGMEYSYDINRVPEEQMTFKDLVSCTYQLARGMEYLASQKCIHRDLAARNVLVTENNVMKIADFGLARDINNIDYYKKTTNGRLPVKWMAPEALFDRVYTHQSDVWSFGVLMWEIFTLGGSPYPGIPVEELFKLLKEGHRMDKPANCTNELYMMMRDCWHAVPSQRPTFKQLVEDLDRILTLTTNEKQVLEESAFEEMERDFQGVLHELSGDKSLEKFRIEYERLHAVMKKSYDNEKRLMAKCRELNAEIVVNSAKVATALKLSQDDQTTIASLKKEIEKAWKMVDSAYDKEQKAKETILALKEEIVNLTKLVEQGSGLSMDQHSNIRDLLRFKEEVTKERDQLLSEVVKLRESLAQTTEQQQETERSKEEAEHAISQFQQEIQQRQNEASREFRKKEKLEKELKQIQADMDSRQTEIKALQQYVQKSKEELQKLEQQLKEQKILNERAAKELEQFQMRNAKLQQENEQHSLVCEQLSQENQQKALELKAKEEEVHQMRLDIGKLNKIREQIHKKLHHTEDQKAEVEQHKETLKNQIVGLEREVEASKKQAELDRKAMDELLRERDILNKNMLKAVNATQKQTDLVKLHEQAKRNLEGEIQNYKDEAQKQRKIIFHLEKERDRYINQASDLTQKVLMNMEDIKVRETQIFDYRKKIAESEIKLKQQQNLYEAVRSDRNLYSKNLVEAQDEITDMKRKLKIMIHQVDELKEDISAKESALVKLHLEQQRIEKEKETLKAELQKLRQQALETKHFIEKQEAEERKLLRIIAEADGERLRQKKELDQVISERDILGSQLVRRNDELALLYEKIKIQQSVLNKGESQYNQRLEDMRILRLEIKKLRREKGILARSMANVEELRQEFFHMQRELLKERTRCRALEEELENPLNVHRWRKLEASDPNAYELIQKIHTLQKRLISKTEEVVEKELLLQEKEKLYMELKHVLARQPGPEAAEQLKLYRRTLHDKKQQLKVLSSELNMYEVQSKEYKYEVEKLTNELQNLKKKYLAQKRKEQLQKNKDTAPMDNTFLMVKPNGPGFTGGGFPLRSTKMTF

| autophosphorylation of fusion polypeptide (anti-phospho-tyrosine Western blot) [7] | autophosphorylation of fusion polypeptide (anti-phospho-tyrosine Western blot) [8] | levels of FGFR phosphorylation (phosphotyrosine ELISA) [9] | levels of FGFR phosphorylation (phosphotyrosine ELISA) [10] | Compound | IC50 (Rat2 parental cells [1]) [nM] | IC50 [2] [nM] | IC50 [3] [nM] | IC50 (Rat2 parental cells [4]) [nM] | IC50 [5] [nM] | IC50 [6] [nM] | effect on body weight (Rat2-FGFR2-CCDC147 tumor) | antitumor efficacy (tumor growth) (Rat2-FGFR2-CCDC147 tumor; established tumors) | antitumor efficacy (tumor growth) (Rat2-FGFR2-VCL tumor; 60 mg/kg-treated group, orally once daily for 14 consecutive days) | antitumor efficacy (tumor growth) (Rat2-FGFR2-VCL tumor; 30 and 60 mg/kg orally once daily for 14 consecutive days, established tumors) | effect on body weight (Rat2-FGFR2-VCL tumor; 30 or 60 mg/kg orally once daily for 14 consecutive days) |
| --- | --- | --- | --- | --- | --- | --- | --- | --- | --- | --- | --- | --- | --- | --- | --- |
|  |  |  |  | Cc1nc2cc(-n3ncc(C(=O)c4cc5ccccc5[nH]4)c3N)ccc2[nH]1 [Compound A] | > 1020 | 227 | 14.7 | > 3000 | 0.53 | 73.4 | no significant effect | inhibited tumor growth; also recorded: highly significant antitumoral efficacy | Tumor stasis | inhibited tumor growth; also recorded: highly significant and dose-dependent antitumoral efficacy | without significantly affecting body weight |
| substantially reduced | somewhat more marginally | decreased | decreased | COC(=O)c1ccc2c(c1)NC(=O)/C2=C(\Nc1ccc(N(C)C(=O)CN2CCN(C)CC2)cc1)c1ccccc1 [Vargatef] |  |  |  |  |  |  |  |  |  |  |  |
